Assay results published in patent publication US7217711B2, “Piperazin-1-yl and 2-([1,4]diazepan-1-yl)-imidazo[4,5-d]-pyridazin-4-ones, the preparation thereof and their use as pharmaceutical compositions” (Boehringer Ingelheim International GmbH, priority 2003, dated 2007).

Key:
[1] = molecular target: T1, DPP-IV (Homo sapiens, UniProt P27487); experiment: DPP-IV assay with extract of Caco-2 cells as DPP IV source, AFC substrate, fluorescence; assay type: biochemical; conditions: extract of human colon carcinoma cell line Caco-2; substrate 100 μM; 60 minutes at ambient temperature; read-out: DPP IV inhibition IC50
T1 construct: an extract of the human colon carcinoma cell line Caco-2 is used as the DPP IV source; endogenous in cells; host or cells: Caco-2 (human colon carcinoma), differentiated to induce DPP-IV expression; Nonidet-P40 solubilised extract
T1 sequence (P27487 whole entry): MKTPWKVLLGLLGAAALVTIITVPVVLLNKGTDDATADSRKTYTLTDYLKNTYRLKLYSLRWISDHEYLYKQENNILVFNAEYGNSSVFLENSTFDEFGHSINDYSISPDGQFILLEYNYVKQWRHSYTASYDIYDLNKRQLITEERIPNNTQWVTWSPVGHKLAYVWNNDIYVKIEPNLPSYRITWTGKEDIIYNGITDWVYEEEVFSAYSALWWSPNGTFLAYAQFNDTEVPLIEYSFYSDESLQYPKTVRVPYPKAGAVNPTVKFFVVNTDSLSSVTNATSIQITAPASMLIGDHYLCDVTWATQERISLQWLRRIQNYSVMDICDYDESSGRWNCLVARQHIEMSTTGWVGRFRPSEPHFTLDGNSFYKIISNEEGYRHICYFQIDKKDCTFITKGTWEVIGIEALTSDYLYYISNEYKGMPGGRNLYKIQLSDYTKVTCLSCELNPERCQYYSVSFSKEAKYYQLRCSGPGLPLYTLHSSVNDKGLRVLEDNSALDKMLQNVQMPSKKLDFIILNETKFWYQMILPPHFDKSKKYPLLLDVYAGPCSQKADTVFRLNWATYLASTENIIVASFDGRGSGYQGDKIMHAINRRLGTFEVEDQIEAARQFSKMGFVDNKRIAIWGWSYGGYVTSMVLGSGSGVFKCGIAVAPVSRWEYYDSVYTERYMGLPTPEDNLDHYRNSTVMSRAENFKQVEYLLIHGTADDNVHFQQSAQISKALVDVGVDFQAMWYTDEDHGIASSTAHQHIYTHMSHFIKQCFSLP
Description: The cell extract was obtained from cells solubilised in a buffer (10 mM Tris HCl, 0.15 M NaCl, 0.04 t.i.u. aprotinin, 0.5% Nonidet-P40, pH 8.0) by centrifugation at 35,000 g for 30 minutes at 4° C. (to remove cell debris).
The DPP-IV assay was carried out as follows:
50 μl of substrate solution (AFC; AFC is amido-4-trifluoromethylcoumarin), final concentration 100 μM, were placed in black microtitre plates. 20 μl of assay buffer (final concentrations 50 mM Tris HCl pH 7.8, 50 mM NaCl, 1% DMSO) was pipetted in. The reaction was started by the addition of 30 μl of solubilised Caco-2 protein (final concentration 0.14 μg of protein per well). The test substances under investigation were typically added prediluted to 20 μl, while the volume of assay buffer was then reduced accordingly. The reaction was carried out at ambient temperature, the incubation period was 60 minutes. […] Dummy values (corresponding to 0% activity) were obtained in mixtures with no Caco-2 protein (volume replaced by assay buffer), control values (corresponding to 100% activity) were obtained in mixtures without any added substance.

[2] = tested on: rats; experiment: Tolerability in rats after oral administration; assay type: in vivo; conditions: oral administration of 10 mg/kg

Row | Structure (SMILES) | IC50 [1] | toxic side effects [2]
1 | CC#CCn1c(N2CCNCC2)nc2cnn(Cc3nc4c(C)cccc4o3)c(=O)c21 [1(9), 2-(piperazin-1-yl)-3-(2-butyn-1-yl)-5-[(4-methyl-benzoxazol-2-yl)methyl]-3,5-dihydro-imidazo[4,5-d]pyridazin-4-one] | 3 nM | –
2 | CC#CCn1c(N2CCCNCC2)nc2cnn(Cc3cc(C)c4nc(C)c(C)nc4c3)c(=O)c21 [1(2), 2-([1,4]diazepan-1-yl)-3-(2-butyn-1-yl)-5-[(2,3,8-trimethyl-quinoxalin-6-yl)methyl]-3,5-dihydro-imidazo[4,5-d]pyridazin-4-one] | 17 nM | –
3 | CC#CCn1c(N2CCNCC2)nc2cnn(Cc3nc(C)c4ccccc4n3)c(=O)c21 [Example 1, 2-(piperazin-1-yl)-3-(2-butyn-1-yl)-5-[(4-methyl-quinazolin-2-yl)methyl]-3,5-dihydro-imidazo[4,5-d]pyridazin-4-one] | – | no toxic side effects could be detected

The next lines start with results.

Row | IC50 [1] | Structure (SMILES) | toxic side effects [2]
4 | 14 nM | CC#CCn1c(N2CCNCC2)nc2cnn(Cc3cc(C)c4nc(C)c(C)nc4c3)c(=O)c21 [Example 2, 2-(piperazin-1-yl)-3-(2-butyn-1-yl)-5-[(2,3,8-trimethyl-quinoxalin-6-yl)methyl]-3,5-dihydro-imidazo[4,5-d]pyridazin-4-one] | –
5 | 5 nM | CC#CCn1c(N2CCCNCC2)nc2cnn(Cc3nc4c(C)cccc4o3)c(=O)c21 [1(13), 2-([1,4]diazepan-1-yl)-3-(2-butyn-1-yl)-5-[(4-methyl-benzoxazol-2-yl)methyl]-3,5-dihydro-imidazo[4,5-d]pyridazin-4-one] | –
6 | 4 nM | CC#CCn1c(N2CCCNCC2)nc2cnn(Cc3ccc4c(c3)nnn4C)c(=O)c21 [1(12), 2-([1,4]diazepan-1-yl)-3-(2-butyn-1-yl)-5-[(1-methyl-1H-benzotriazol-5-yl)methyl]-3,5-dihydro-imidazo[4,5-d]pyridazin-4-one] | –
7 | 2 nM | CC#CCn1c(N2CCNCC2)nc2cnn(Cc3ccc4c(c3)nnn4C)c(=O)c21 [1(11), 2-(piperazin-1-yl)-3-(2-butyn-1-yl)-5-[(1-methyl-1H-benzotriazol-5-yl)methyl]-3,5-dihydro-imidazo[4,5-d]pyridazin-4-one] | –
